Reference: patent US9157909B2, “Male reproductive health panel and uses thereof” (priority 2007, dated 2015)
Where two headings read alike, the source gives them in different places.

Tests used:
human sperm [1] = tested on: human sperm
Method: (§1) In vitro oxidative stress exposure; human sperm from a fertile […] were exposed to increasing hydrogen peroxide (H2O2) concentrations (0, 10, 50 and 100 μM), and incubated at 37° C., for 15 min and 1 hr.
(§2) Sperm was isolated from the seminal plasma as previously described in Brown et al. 1995. The sperm pellet was resuspended in phosphate buffered saline (PBS), pH=7.4, and divided into 4 aliquots. Each aliquot (equal sperm concentrations) was incubated at 37° C. in PBS with H2O2 concentrations of 0, 10, 50, and 100 μM for 15 min and 1 hr. All aliquots were divided into 2 portions. One portion was used to determine LPO.
(§3) The remaining portion was centrifuged at 1500 g for 15 min at room temperature. The pellet was analyzed in the HSAA.
Sperm chromatin decondensation and nuclear recondensation were evaluated in sperm exposed to increasing concentrations of H2O2 for 15 min and 1 hr using the HSAA. Sperm were analyzed at different incubation times in the egg extract using the image analysis Methamorph software system. The sperm nuclear activation was scored in 5 categories: 1) full decondensation: sperm diameter 25-30 μm, 2) partial decondensation: sperm diameter<25 μm, 3) non-decondensed, 4) hyperdecondensed: sperm diameter>(25-30 μm), and full recondensation.

human sperm [2] = conditions: for sperm heavily labeled by ^3H-TTP incorporation: incubation not printed (15 min implied)
Method: FIG. 3: HSAA—The effect of oxidative stress on DNA synthesis. Pictorial representation of autoradiographs of control untreated sperm (A-E) and sperm exposed to 100 μM H2O2 for 1 hr (a-e) assayed in the HSAA in the presence of ^3H-TTP. All the pictures were photographed using bright microscopy 60× objective. […] All pictures were printed at the same magnification.
as §1, §2, §3

sperm [3] = conditions: comet assay, direct exposure of sperm; cited from earlier work
human sperm [4] = conditions: 50 and 100 μM H2O2 (15 min); 10, 50 and 100 μM H2O2 (1 hr)
Method: as §2

sperm [5] = conditions: sperm exposed to hydroxylamine, analyzed in the HSAA; cited from earlier work
human sperm [6] = experiment: HSAA of sperm exposed to ROS from PMA-activated PMNL with or without Trolox; assay type: cell-based
Method: PMNLs were isolated from blood of healthy donors by density gradient centrifugation. Activation and the number of peroxidase-positive leukocytes were determined using the Endtz test. Sperm from fertile males were isolated using percoll gradients (40 and 80%). Sperm from the 80% fraction was divided into 6 aliquots: 1) control non-treated sperm, 2) sperm treated with ROS inducer phorbol-12 myristate-13 acetate (PMA), 3) non-treated sperm with non-treated PMNL, 4) sperm with PMA treated PMNL, 5) sperm with PMA treated PMNL plus Trolox 40 μM, and 6) non-treated sperm plus Trolox 40 μM. Following an incubation period, sperm were evaluated for (A) sperm activation events in the HSAA, evaluating sperm activation events (decondensation, DNA synthesis, and recondensation) at 15 min, and 2 hr, and (B) determining ROS levels via nitroblue of tetrazolium (NBT) and spectrophotometry.

[7] = Trolox 40 μM with PMA treated PMNL (oxidative stress)

OO [H2O2, hydrogen peroxide]
hyper-decondensed sperm (human sperm [1]; 10 μM H2O2, 2 and 3 hr incubation in egg extract (results combined)): No sperm were hyper-decondensed | recondensation appearance (FIG. 3d, e) (human sperm [1]; 100 μM H2O2, 1 hr exposure, 2 and 3 hr incubation in egg extract): irregular recondensation | recondensed sperm (human sperm [1]; 10 and 50 μM H2O2, 15 min exposure, 15 min incubation in egg extract): No recondensed sperm were observed | non-decondensed sperm (human sperm [1]; other concentrations (50 and 100 μM H2O2), any exposure time point, 15 min incubation in egg extract): no sperm were non-decondensed | ^3H-TTP incorporation (autoradiography) (human sperm [2]; 10 μM H2O2, 15 min and 1 hr exposure, 2 and 3 hr incubations in egg extract): normal ^3H-TTP incorporation | ^3H-TTP incorporation (autoradiography) (human sperm [2]; 10 μM H2O2, 15 min and 1 hr exposure, 5 and 15 min incubations in egg extract): no incorporation of ^3H-TTP | heavily labeled sperm (^3H-TTP) (human sperm [2]; 10 μM H2O2, 15 min and 1 hr exposures, 3 hr incubation in egg extract): 98±2% | sperm positive for ^3H-TTP incorporation (human sperm [2]; 10 μM H2O2, 15 min and 1 hr exposures, incubation time not printed (15 min in egg extract implied)): No sperm were positive | sperm positive for ^3H-TTP incorporation (human sperm [2]; 10 μM H2O2, 5 min incubation in egg extract per heading (sentence prints 15 min extract incubation)): No sperm were positive | sperm heavily labeled by ^3H-TTP incorporation (human sperm [2]; 50 μM H2O2, 15 min exposure): 10±2% | sperm heavily labeled by ^3H-TTP incorporation (human sperm [2]; 100 μM H2O2, 15 min exposure): 50±5% | onset of DNA synthesis (autoradiograph, FIG. 3b) (human sperm [2]; 100 μM H2O2, 1 hr exposure, 5 min incubation in egg extract): early initiation of DNA synthesis | onset of DNA synthesis (autoradiograph, FIG. 3c) (human sperm [2]; 100 μM H2O2, 1 hr exposure, 15 min incubation in egg extract): early initiation of DNA synthesis | sperm heavily labeled by ^3H-TTP incorporation (human sperm [2]; 100 μM H2O2, 1 hr exposure): 45±9% | ^3H-TTP incorporation (autoradiography) (human sperm [2]; 50 and 100 μM H2O2, 15 min and 1 hr exposure): abnormal ^3H-TTP incorporation | H2O2 concentration at which induction of DNA fragmentation was significant (sperm [3]): 200 µM | LPO (amount of MDA and hydroxyalkenals), means compared to untreated control sperm (human sperm [4]): significantly different

NO [hydroxylamine]
onset of DNA synthesis (sperm [5]): early initiation of DNA synthesis | sperm decondensation response (sperm [5]): minimal decondensation

Cc1c(C)c2c(c(C)c1O)CCC(C)(C(=O)O)O2 (stereo not shown) [Trolox, 6-Hydroxy-2,5,7,8-tetramethylchroman-. 2-carboxylic acid]
decondensation response (human sperm [6]; [7]): improved responses in decondensation | early ^3H-TTP incorporation (human sperm [6]; [7]): no early ^3H-TTP incorporation | sperm having recondensed chromatin (human sperm [6]; Trolox 40 μM with PMA treated PMNL, 2 hr time point, only 57% without Trolox): 78%
